Data taken from PubChem BioAssay AID1620 (Sanford-Burnham Center for Chemical Genomics, 2009).
Activity calls are given as the source filed them.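 Rule for the calls: active = toxicity graded low, moderate or high, meaning less radioactive sulfur built into protein than in solvent-only controls; inactive = the rest.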

The compounds below were run on HeLa, 35S-Met/Cys protein incorporation toxicity, 3 h (assay: HeLa cytotoxicity by protein synthesis, late-stage follow-up, cytotoxicity control for PMI inhibitor project, HeLa cells (AID 1620)).

Structure (SMILES) | outcome
CCOc1ccc(-c2nc(=S)[nH][nH]2)cc1 | inactive; no toxicity
COc1cccc(-n2sc3ccccc3c2=O)c1 | active; low toxicity
Clc1nss/c1=N\c1nc2ccccc2s1 | active; highly toxic
O=c1c2c([N+](=O)[O-])cc([N+](=O)[O-])cc2sn1-c1ccccc1F | active; low toxicity
O=[N+]([O-])c1ccc(N=c2ssnc2Cl)c2ccccc12 | active; low toxicity
Clc1nss/c1=N\c1nccs1 | inactive; no toxicity
Cc1ccc(C)c(-n2sc3cc(F)ccc3c2=O)c1 | active; high toxicity
OCc1ccccc1N=c1ssnc1Cl | inactive; no toxicity
O=c1c2ccccc2sn1-c1cccc(C(F)(F)F)c1 | active; highly toxic
CCSc1n[nH]c(=S)s1 | inactive; no toxicity
Cc1ccc(N=c2ssnc2Cl)cc1 | inactive; no toxicity
Nc1ccccc1N=c1ssnc1Cl | inactive; no toxicity
COc1cc(N=c2ssnc2Cl)cc(OC)c1 | inactive; no toxicity
O=c1c2ccc(F)cc2sn1-c1cc(Cl)ccc1Cl | active; highly toxic
Cc1ccc(C)c(-n2sc3ccc(F)cc3c2=O)c1 | active; moderate toxicity
O=c1c2ccccc2sn1-c1cc(S(=O)(=O)N2CCOCC2)ccc1N1CCOCC1 | active; moderate toxicity
Cc1ccc(C)c(-n2sc3ccccc3c2=O)c1 | active; moderate toxicity
Cc1ccc(C=Nn2c(-c3ccncc3)n[nH]c2=S)cc1 | inactive; no toxicity
COc1cc(N=c2ssnc2Cl)cc(OC)c1OC | inactive; no toxicity
O=C(O)CCn1cc(C=C2C(=O)NC(=S)NC2=O)c(-c2cccc(Br)c2)n1 | inactive; no toxicity
CC(C)(C)c1ccc(N=c2ssnc2Cl)cc1 | active; moderate toxicity

Structure (SMILES) | outcome
O=c1c2ccccc2sn1-c1ccc(Cl)cc1 | active; highly toxic
Clc1ccc(N=c2ssnc2Cl)cc1 | active; highly toxic
S=c1nc(-c2cccc(Br)c2)[nH][nH]1 | inactive; no toxicity
O=C(NCc1ccccc1)c1cccc(-n2sc3ccccc3c2=O)c1 | inactive; no toxicity
CN(C)c1cccc(N=c2ssnc2Cl)c1 | active; highly toxic
O=[N+]([O-])c1ccc(N=c2ssnc2Cl)c([N+](=O)[O-])c1 | inactive; no toxicity
O=c1c2ccccc2sn1-c1cccc(S(=O)(=O)Nc2ccc(Cl)cc2)c1 | active; moderate toxicity
Clc1cccc(N=c2ssnc2Cl)c1 | active; low toxicity
O=c1c2ccccc2sn1-c1cccc(Cl)c1 | active; highly toxic
N#Cc1ccc(N=c2ssnc2Cl)cc1 | inactive; no toxicity
Clc1nss/c1=N\c1nncs1 | active; moderate toxicity
S=c1nc(C2COc3ccccc3O2)[nH][nH]1 (stereo not drawn) | inactive; no toxicity
Clc1nssc1=Nc1ccc(Br)cc1 | active; high toxicity
O=c1c2ccccc2sn1-c1ccc(Cl)c(S(=O)(=O)N2CCOCC2)c1 | active; moderate toxicity
CCc1cc(CC)c(N=c2ssnc2Cl)c(CC)c1 | active; highly toxic
Clc1ccc(Nc2ccccc2N=c2ssnc2Cl)cc1 | active; highly toxic
O=C1c2ccccc2SC1c1ccccc1 (stereo not drawn) | active; low toxicity
O=c1c2ccccc2sn1-c1cc(S(=O)(=O)N2CCOCC2)ccc1N1CCCC1 | active; moderate toxicity
COc1ccc(N=c2ssnc2Cl)cc1OC | active; highly toxic
N#CC1=C2SCN(Cc3ccccc3)CN2C(=O)CC1c1ccc2c(c1)OCO2 (stereo not drawn) | inactive; no toxicity
Cc1ccc(C)c(N2Cc3ccccc3C2=O)c1 | active; low toxicity

Structure (SMILES) | outcome
S=c1nc(-c2ccccc2Br)[nH][nH]1 | inactive; no toxicity
CN(C)c1cccc(-n2sc3ccccc3c2=O)c1 | inactive; no toxicity
O=c1c2ccccc2sn1-c1nccs1 | inactive; no toxicity
CN(C)c1ccc(N=c2ssnc2Cl)cc1 | active; moderate toxicity
COc1ccc(-c2nc(=S)[nH][nH]2)cc1OC | inactive; no toxicity
Oc1ccc(N=c2ssnc2Cl)cc1 | inactive; no toxicity
COc1ccc2c(=O)n(C3CCCC3)sc2c1 | inactive; no toxicity
Cc1ccc(N=c2ssnc2Cl)cc1[N+](=O)[O-] | active; moderate toxicity
Cc1ccc(N=c2ssnc2Cl)nc1 | active; highly toxic
O=C(O)c1ccccc1NS(=O)(=O)c1cccc(-n2sc3ccccc3c2=O)c1 | active; high toxicity
COC(=O)c1cccc(-n2sc3ccccc3c2=O)c1 | active; moderate toxicity
Cc1ccc(C)c(-n2[nH]c3ccccc3c2=O)c1 | inactive; no toxicity
O=c1c2ccccc2sn1-c1cccc(I)c1 | active; highly toxic
Clc1nssc1=Nc1ccccc1 | inactive; no toxicity
Cc1cccc(N=c2ssnc2Cl)c1 | active; moderate toxicity
Cc1ccc(C)n1-c1nc(=S)[nH][nH]1 | inactive; no toxicity
Cc1cccc(-n2sc3cc(F)ccc3c2=O)c1C | active; moderate toxicity
Cc1ccc(N=c2ssnc2Cl)cc1C | active; moderate toxicity
CN(C)S(=O)(=O)c1cccc(-n2sc3ccccc3c2=O)c1 | active; moderate toxicity
O=c1c2ccc(O)cc2sn1C1CCCC1 | inactive; no toxicity
COc1ccc(OC)c(N=c2ssnc2Cl)c1 | inactive; no toxicity

Structure (SMILES) | outcome
Cc1[nH]n(-c2ccccc2)c(=S)c1C=Nc1cccc([N+](=O)[O-])c1 | inactive; no toxicity
O=c1c2c([N+](=O)[O-])cc([N+](=O)[O-])cc2sn1-c1ccc(F)c(Cl)c1 | inactive; no toxicity
FC(F)(F)c1ccc(N=c2ssnc2Cl)cc1 | active; moderate toxicity
S=c1nc(-c2cccc(Cl)c2)[nH][nH]1 | inactive; no toxicity
Cc1ccc(N=c2ssnc2Cl)c([N+](=O)[O-])c1 | active; low toxicity
Cc1c(Cl)cccc1-n1sc2cc([N+](=O)[O-])cc(OCC(F)(F)F)c2c1=O | active; low toxicity
Cc1cccc(-n2sc3ccccc3c2=O)c1 | active; moderate toxicity
O=c1c2cc(F)ccc2sn1-c1ccccc1 | active; moderate toxicity
COc1ccc(-c2nc(=S)[nH][nH]2)cc1 | inactive; no toxicity
Cc1ccnc(-n2sc3ccccc3c2=O)n1 | inactive; no toxicity
COc1cc(N=c2ssnc2Cl)c(OC)cc1Cl | active; low toxicity
O=C(O)c1cccc(-n2sc3ccccc3c2=O)c1 | active; moderate toxicity
Cc1ccc(-n2sc3ccccc3c2=O)cc1S(=O)(=O)N1CCCCC1 | active; moderate toxicity
O=c1c2ccccc2sn1-c1ccc(F)cc1 | active; moderate toxicity
O=c1c2c([N+](=O)[O-])cc([N+](=O)[O-])cc2sn1-c1ccc(F)cc1 | active; low toxicity
Clc1ccc(N=c2ssnc2Cl)cc1Cl | active; highly toxic
O=c1c2ccccc2sn1-c1ccccc1 | inactive; no toxicity
COc1cc([N+](=O)[O-])ccc1N=c1ssnc1Cl | active; moderate toxicity
O=c1c2ccccc2sn1-c1ccc2ccccc2c1 | active; high toxicity
COc1cc(-c2nc(=S)[nH][nH]2)cc(OC)c1OC | inactive; no toxicity
